2 molecules from the NIST ThermoML archive (doi:10.1021/je700578f) can be followed below.

For the series the following is noted: Maximal bubble pressure.

Numbers after ± are expanded uncertainties.

With `O=C(OCc1ccccc1)c1ccccc1` [benzyl benzoate], the surface tension liquid-gas (commonly the work needed to enlarge the surface of a liquid by unit area) reads like this: (353.15 K) 39.6 ± 1.6 mN/m; (373.15 K) 37.53 ± 1.5 mN/m; (393.15 K) 35.33 ± 1.4 mN/m; (413.15 K) 33.3 ± 1.4 mN/m; (433.15 K) 31.1 ± 1.3 mN/m; (453.15 K) 28.95 ± 1.2 mN/m. Further, the surface tension liquid-gas (473.15 K) was found to be 26.8 ± 1.1 mN/m.
For the molecule `CO` [methanol], the surface tension liquid-gas was determined as 21.75 ± 0.89 mN/m (303.15 K); 20.9 ± 0.86 mN/m (313.15 K); 20.04 ± 0.82 mN/m (323.15 K); 19.18 ± 0.79 mN/m (333.15 K); 18.32 ± 0.75 mN/m (343.15 K).
